# Patent US20050054559A1, “Compounds for sustained release of orally delivered drugs” (priority 2000, published 2005)
# Test: Secretion in bile following oral administration to bile duct-cannulated rats
# Type: in vivo, rat
# Details: single oral dose of (4) 85.25 mg/kg
# Protocol: Sustained release of gabapentin from a prodrug that is subject to enterohepatic recirculation requires that a proportion of the intact prodrug be absorbed after oral administration and subsequently secreted into the bile intact. The potential for enterohepatic recirculation of intact (4) was examined in rats with indwelling bile duct fistulae. […] Bile was collected continuously in aliquots over 24 hours. Plasma and bile samples were frozen at −80° C. until analyzed. Concentrations of (4) or gabapentin in plasma samples were deermined by LC/MS/MS as described in Example 38. Concentrations of intact […] in bile were similarly deermined by LC/MS/MS. Bile (20 μL) was diluted 1:1000 with methanol and injected directly onto the HPLC system. Concentrations of (4) in bile reached a maximum at ˜6 hours post-dosing and were sustained up to 24 hours.
structure (smiles),measurement,setting,value
CC(CCC(=O)NCC1(CC(=O)O)CCCCC1)C1CCC2C3C(O)CC4CC(O)CCC4(C)C3CC(O)C12C (stereo not drawn) [Compound (4)],concentrations of (4) in bile sustained up to,bile duct-cannulated rats,up to 24 hours
same,time of maximum concentration of (4) in bile,"bile duct-cannulated rats, post-dosing",~6 h
same,gabapentin in plasma of bile duct-cannulated rats,,no gabapentin was detected
